Assay results as given in patent US8470769B2, “Method of treatment of bacterial infection by administration of poly-lysine” (priority 2004, dated 2013).

Tests used:
[1] = tested on: Candida albicans strain 3179; assay: Candida albicans survival assay (viable counts); assay type: cell-based; settings: for Survival of Candida albicans, antifungal activity compared with poly-L-lysine: 100 μg/ml, 1 mg/ml and 10 mg/ml, 2 hours at 37° C. (FIG. 19)
Procedure: (§1) Trichophyton interdigitale (NCPF 117) and Trichophyton rubrum (NCPF 335) strains were obtained from the National Collection of Pathogenic Fungi, Bristol and maintained in culture by transfer at approximately monthly intervals on slopes of Sabuoraud's agar and Potato Dextrose Agar at 30° C. Candida albicans strain 3179 (obtained from the National Collection of Type Cultures [NCTC], Colindale) was maintained in Oxoid Mueller Hinton Broth at 37° C. Streptococcus pyogenes strain 8198, Staphylococcus aureus strain 10642 (methicillin-resistant), and E. coli 0157 strain 12900 were obtained from the NCTC, Colindale and maintained in Oxoid Mueller Hinton Broth at 37° C.
To determine the sensitivity of fungal strains to each of the test peptides, their impact on Candida survival was assessed as follows. C. albicans cultures were grown for 18-24 h then stored at 4° C. prior to use. Fresh cultures grown overnight were centrifuged at 2000×g for 10 min and washed with fresh Mueller Hinton Broth, adjusting the number of viable cells to between 5×10^6 and 1×10^7/ml. Assay buffer was prepared by adding 100 μl of NGB medium to 6.9 ml of 10 mM sodium phosphate buffer, pH 7.7. 35 μl of assay buffer with or without a range of peptide concentrations was added to a sterile polypropylene screw-capped vial and 15 μl of the Candida albicans inoculum described above was added. The vials were incubated at 37° C. in a water bath for 2 h, and the number of Candida spp. surviving was determined by serial dilution in sterile phosphate buffered saline (PBS) and plating out onto 9 cm Petri dishes containing Oxoid Sabouraud's Agar (20 ml). Counts were made after incubation of these plates at 37° C. for 18-24 h.

[2] = tested on: Trichophyton rubrum (NCPF 335); assay: Fungal growth sensitivity assay (absorbance at 540 nm); assay type: cell-based
Procedure: as §1
To determine the sensitivity of fungal strains to each of the test peptides, their impact on fungal growth was assessed as follows. Suspensions of T. interdigitale and T. rubrum conidia and hyphal fragments were prepared by adding 10 ml of fresh Nutrient Glucose Broth (NGB) (Oxoid Nutrient broth containing 2% w/v glucose) to a slope culture and agitating with a spatula. The resulting conidial/hyphal fragment suspension was filtered through 2 layers of sterile surgical gauze to remove large hyphal mats and pieces of agar. 20 μl of this suspension (absorbance at 540 nm around 0.1, corresponding to approx 10^6 propagules/ml) was inoculated into each well of sterile, 96 well microtitre plates to which a total volume 80 μl of nutrient medium (NGB) and the appropriate amount of peptide solution had previously been added. Control wells were those in which the final assay volume of 100 μl was made up with NGB medium alone, plus solvent (if applicable and at the same concentration as the peptide samples if so). […]

[3] = tested on: Trichophyton interdigitale (NCPF 117); assay: as above; assay type: cell-based
Procedure: as §1
To determine the sensitivity of fungal strains to each of the test peptides, their impact on fungal growth was assessed as follows. Suspensions of T. interdigitale and T. rubrum conidia and hyphal fragments were prepared by adding 10 ml of fresh Nutrient Glucose Broth (NGB) (Oxoid Nutrient broth containing 2% w/v glucose) to a slope culture and agitating with a spatula. The resulting conidial/hyphal fragment suspension was filtered through 2 layers of sterile surgical gauze to remove large hyphal mats and pieces of agar. 20 μl of this suspension (absorbance at 540 nm around 0.1, corresponding to approx 10^6 propagules/ml) was inoculated into each well of sterile, 96 well microtitre plates to which a total volume 80 μl of nutrient medium (NGB) and the appropriate amount of peptide solution had previously been added. Control wells were those in which the final assay volume of 100 μl was made up with NGB medium alone, plus solvent (if applicable and at the same concentration as the peptide samples if so). Fungal growth within the plates was monitored by absorbance at 540 nm in a Microtek plate reader after 24 h, 4 day and 7 day incubations at 30° C.

[4] = tested on: Candida albicans strain 3179; assay: Candida albicans growth by optical density (absorbance at 540 nm); assay type: cell-based; settings: 50 or 100 and 300 or 500 μg/ml peptide; 24 h and 48 h; time and dose-dependent (FIG. 4)
Procedure: as §1
The yeast Candida albicans was cultured, as described previously in the materials and methods section, in growth medium alone (control cultures) or in growth medium containing 50 μg/ml or 100 μg/ml and 300 μg/ml or 500 μg/ml of peptide 1, 2, 3 or 4. Growth of C. albicans was assessed by measuring optical density (absorbance at 540 nm) after 24 h (FIG. 4a) and 48 h (FIG. 4b) in culture. […] In a separate experiment, C. albicans survival was assessed after 18-24 h in cultures grown in medium alone (controls) or those including a range of concentrations of peptide 4 spanning 1 μg/ml to 1000 μg/ml (FIG. 6).

[5] = tested on: E. coli 0157 strain 12900; assay: Bacterial survival assay; assay type: cell-based, Escherichia coli; settings: range of concentrations; 3 h of exposure; dose dependent (FIG. 7)
Procedure: (§2) Streptococcus pyogenes strain 8198, Staphylococcus aureus strain 10642 (methicillin-resistant), and E. coli 0157 strain 12900 (all obtained from the NCTC, Colindale) were grown for 18-24 h then stored at 4° C. prior to use. Fresh cultures grown overnight were centrifuged at 2000×g for 10 min and washed with fresh Mueller Hinton Broth. Sensitivity to each of the four peptides was assayed as per C. albicans described above. For E. coli and S. aureus, the starting number of cells for the peptide sensitivity assay was 10^8/ml and the medium used for enumeration was Nutrient Agar (Oxoid). Str. pyogenes grew less well than the other strains on Mueller Hinton agar and so the starting number of cells for these assays was lower than that for the other strains, at 10^6/ml. Str. pyogenes survival was determined using Oxoid Tryptose Soya Agar in place of Nutrient Agar.
(§3) Three clinically relevant bacterial pathogens, E. coli 0157, methicillin-resistant Staphylococcus aureus (MRSA) and Streptococcus pyogenes, were exposed, as described previously in the materials and methods section, to a range of concentrations of peptide 4. After a period of 3 h, samples of each bacterial culture were transferred to appropriate solid phase growth media plates and the numbers of viable colonies in control (growth medium only) and treated (growth medium containing peptide 4) samples assessed after 18-24 h.

[6] = tested on: Staphylococcus aureus strain 10642 (methicillin-resistant); assay: Bacterial survival assay; assay type: cell-based; settings: range of concentrations; 3 h of exposure; dose dependent (FIG. 7)
Procedure: as §2, §3

[7] = tested on: Streptococcus pyogenes strain 8198; assay: Bacterial survival assay; assay type: cell-based; settings: range of concentrations; 3 h of exposure; dose dependent (FIG. 7)
Procedure: as §2, §3

[8] = 3 concentrations of Peptide 4, no acetic acid, 96 hours at 30° C. (FIG. 9)
[9] = 100 μg/ml, no acetic acid, 96 hours at 30° C. (FIG. 15)
[10] = 3 concentrations, no acetic acid, 96 hours at 30° C. (FIG. 14)
[11] = no acetic acid, 96 hours at 30° C. (FIG. 13)

Poly-D-lysine-HBr 4,000-15,000Da (27-100aa) [pKd27-100]
Survival of Candida albicans, antifungal activity compared with poly-L-lysine [1]: very similar antifungal activity to the poly-L-lysine

L-Arginine trimer [RRR]
Activity against T. rubrum compared among the trimers ([2]; 2 mg/ml of each trimer, 96 hours at 30° C. (FIG. 16)): most active peptide | Growth of T. rubrum (OD, percentage of the growth in the untreated culture) ([2]; 2 mg/ml of trimer, 96 hours at 30° C. (FIG. 16)): significant reduction in growth

Peptide 4: peptide of FIG. 1 (SEQ ID NO: 10); highly cationic peptide comprising lysine and arginine residues (KRKRKRKCRKRKRRCRKRKCKRKRKRKRKCRKRKRKCCRRKK)
Growth of T. interdigitale (optical density, absorbance at 540 nm) ([3]; 50 μg/ml peptide, day 4 and 7, 0.5% acetic acid as solvent, compared to un-treated control (FIG. 2)): significantly inhibited | Growth of T. interdigitale (OD) [3, 8]: inhibitory effect | Growth of T. interdigitale (OD) ([3]; 7 days, no acetic acid solvent (FIG. 10)): significantly inhibit fungal growth | Effect of salt concentrations on antifungal activity towards T. interdigitale ([3]; Peptide 4 1.2 mg/ml, NaCl 100 mM to 500 mM, no acetic acid, 96 h at 30° C. (FIG. 17)): not affected | Peptide concentration at which growth of T. interdigitale was inhibited ([3]; no acetic acid, 96 hours at 30° C. (FIG. 9)): 0.55 mg/mL | Growth of T. rubrum (optical density, absorbance at 540 nm) ([2]; 50 μg/ml peptide, day 4 and 7, 0.5% acetic acid as solvent, compared to un-treated control (FIG. 3)): significantly inhibited | Growth of T. rubrum (OD) ([2]; 1 mg/ml peptide 4 alone, 3 days in culture (FIG. 8)): inhibited T. rubrum growth | Growth of T. rubrum (OD) [2, 8]: inhibitory effect | Growth of C. albicans (optical density, absorbance at 540 nm) [4]: significantly inhibited C. albicans growth | Survival of C. albicans (viability counts) ([1]; 1 μg/ml to 1000 μg/ml, after 24 h in culture (FIG. 6)): decreased in a dose-dependent manner | Survival of C. albicans at high salt concentrations ([1]; range of Peptide 4 concentrations, two concentrations of NaCl, 2 h incubation at 37° C. (FIG. 18)): Significant killing activity | Effect of salts on fungicidal activity against C. albicans ([1]; two concentrations of NaCl, 2 h incubation at 37° C. (FIG. 18)): not inhibited by salts | Survival of E. coli 0157 (viable colonies) [5]: significantly inhibited survival | Survival of methicillin-resistant Staphylococcus aureus (MRSA) (viable colonies) [6]: significantly inhibited survival | Survival of Streptococcus pyogenes (viable colonies) [7]: significantly inhibited survival

Poly-L-arginine-HCl 5,000-15,000 (28-86aa) [pR28-86]
Growth of T. interdigitale (OD) [3, 9]: loss of activity | Concentration down to which active against T. interdigitale [3, 10]: 0.55 mg/mL | Growth of T. rubrum (OD) [2, 9]: loss of activity | Growth of T. rubrum ([2]; 1 mg/ml, no acetic acid, 96 hours at 30° C. (FIG. 13)): totally inhibiting growth | Concentration down to which active against T. rubrum [2, 10]: 0.55 mg/mL | Inhibitory impact against T. rubrum compared with poly-L-Lysine ([2]; equivalent doses, no acetic acid, 96 hours at 30° C. (FIG. 13)): more active | Growth of T. rubrum [2, 11]: inhibited the growth | Survival of Candida albicans, antifungal activity compared with poly-L-lysine [1]: increased antifungal activity

Poly-L-lysine-HCl 15,000-30,000Da (100-200aa) [pK100-200]
Growth of T. interdigitale ([3]; between 1 mg/ml and 50 μg/ml, no acetic acid, 96 hours at 30° C. (FIG. 12)): inhibited growth at all concentrations tested | Growth of T. rubrum [2, 11]: inhibited the growth

CC(=O)O [acetic acid]
Growth of T. interdigitale ([3]; 0.5% acetic acid, 96 hours at 30° C. (FIG. 11)): significant effect | Growth of T. rubrum (OD) ([2]; 0.01% acetic acid alone, 3 days in culture (FIG. 8)): no significant effect
